The text below walks through data of patent publication US4808609A, “Amino-(hydroxy)alkoxy-4-phenylpropyl indoles having antiarrythmic activity” (Roussel Uclaf, priority 1985, dated 1989).

The subject of data set [1] is disturbances of the cardiac rhythm (aconitine). The data set can be described thus: Anti-arrhythmic activity in the rat (aconitine-induced cardiac rhythm disturbances). It counts as in vivo. How it is done:
Male rats weighing 300-350 g anesthetized intraperitoneally with 1.20 g/kg of urethane were tracheotomized and subjected to artificial respiration (40-50 breaths of 3 ml/minute). Needles were implanted subcutaneously to record the eletrocardiogram of the rats on the derivation signal DII. The products under test were administered intravenously or orally. Five minutes after the administration of the product intravenously or 1 hour after administration orally, the jugular vein of the rats was perfused with 10 μg/min. of an aconitine solution and the time was noted of the appearance of disturbances of the cardiac rhythm (10 μg of aconitine corresponding to the perfusion of a volume of 0.2 ml of solution. The results were expressed as a percentage of the extension of the time of appearance of the cardiac rhythm disturbances as compared to controls and as a function of the dose of the product under test.

The subject of data set [2] is Caudal arteries of rats. In words: Anti-calcic activity in vitro (inhibition of K+ depolarization contraction of caudal arteries of rats). Particulars: rat caudal artery spirals, 100 mM K+, Ca2+ 0.1 to 3.0 mM, 37° C.; read-out: IC 50 (inhibits by 50% the contraction due to the K+ ions). It is filed as cell-based. The procedure:
Caudal arteries of rats were cut into spirals and attached to tension indicators and were kept in tanks of 25 ml of Krebs buffer-sodium bicarbonate (NaCl: 120.8 mM, KCl: 5.9 mM, MgCl2 : 1.2 mM, NaH2 PO4 : 1.2 mM, NaHCO3 : 15.5 mM, glucose: 12.6 mM) at 37° C. gassed with a mixture of O2 : 95%--CO2 --5%. The preparations were depolarized by a buffer solution with a concentration of 100 mM of K^+ ions (NaCl: 26.7 mM, KCl: 100 mM, MgCl2 1.2 mM, NaH2 PO4 : 1.3 mM, NaHCO3 : 15.5 mM, glucose: 12.6 mM).
250 μl of solutions of calcium chloride were added so that an increasing range of concentrations of Ca^2+ ions going from 0.1 to 3.0 mM was obtained. The contractions of the arteries were recorded and in this way a control range was established. The operation was repeated with the range of Ca^2+ ions every 15 minutes, and the preparation was washed four times after each range. When a stable response was obtained, the operation was carried out with the ranges of Ca^2+ ions in the presence of different concentrations of the product under test until a stable response was obtained.
The contractions of the arteries depend on the entry of the Ca^2+ ions into the cells of the smooth muscles and they are caused by the depolarization of the smooth muscle by the K^+ ions by the action of the noradrenaline liberated at the presynaptic level. By repeating the operation with the arteries denervated by the action of 6-OH dopamine, the action due to the noradrenaline alone is suppressed.
The results are expressed in IC 50 (inhibiting concentration 50) which is the concentration of the product under test which inhibits by 50% the contraction due to the K^+ ions.

In data set [3] the test system is mice. The data set can be described thus: Study of the acute toxicity (oral, mice). It counts as in vivo. How it is done: The lethal doses LD0 were evaluated for the different compounds tested after oral administration to mice.
[4] abbreviates: IV, 0.5 mg/kg, aconitine five minutes after administration.
Setting [5] is: oral, 10 mg/kg, aconitine 1 hour after administration.
The mark [6] stands for this setting: IV, 2.5 mg/kg, aconitine five minutes after administration.

The structures appear in SMILES notation. Where only a bound is given, the exact number is not on record here.

With `CC(C)(C)NCC(O)COc1ccccc1C(=O)CCc1cccc2[nH]ccc12` (stereo not shown) [Example 1, (E) butenedioate (1,2) of 1-[2-[3-(1,1-dimethylethylamino)-2-hydroxypropoxy]-phenyl]-3-(1H-indol-4-yl)-1-propanone], the “% extension of time of appearance of cardiac rhythm disturbances” value (“% extension” for short) in data set [1] (setting [4]) was determined as 28%; in data set [1] (oral, 5 mg/kg, aconitine 1 hour after administration), 41%; in data set [1] (setting [5]), 39%; in data set [1] (oral, 25 mg/kg, aconitine 1 hour after administration), 142%. Besides, in data set [2], the IC50 was determined as 0.4 µM. Moreover, the “LD0 (maximum dose which does not cause any mortality in 8 days)” value in data set [3] is on record as 100 mg/kg.
In the case of `CCCNCC(O)COc1ccccc1C(=O)CCc1cccc2[nH]ccc12` (stereo not shown) [Example 2, (E) butenedioate (1,2) 1-[2-[2-hydroxy-3-propylamino-propoxy]-phenyl]-3-(1H-indol-4-yl)-1-propanone], in data set [1] (IV, 1 mg/kg, aconitine five minutes after administration), the “% extension” value is recorded as 32%. Further, the IC50 in data set [2] is 3.8 µM. Besides, in data set [3], the “LD0 (maximum dose which does not cause any mortality in 8 days)” value is 100 mg/kg.
In the case of `CC(C)(C)NCC(O)COc1ccccc1C(=O)CCc1cccc2c1CC(=O)N2` (stereo not shown) [Example 5, 1,3-dihydro-4-[3-[2-[3-(1,1-dimethylethylamino)-2-hydroxypropoxy]-phenyl]-3-oxo-propyl]-2H-indol-2-one], the figures for the “% extension” value in data set [1] (setting [4]) and in data set [1] (setting [5]) were 66% and 47%, respectively. In addition, the “LD0 (maximum dose which does not cause any mortality in 8 days)” value in data set [3] is given as more than 400 mg/kg.
As to `CCCNCC(O)COc1ccccc1C(=O)CCc1cccc2c1CC(=O)N2` (stereo not shown) [Example 6, 1,3-dihydro-4-[3-oxo-3-[2-(2-hydroxy-3-propylamino-propoxy)-phenyl]-propyl]-2H-indol-2-one], the “% extension” value in data set [1] (IV, 0.25 mg/kg, aconitine five minutes after administration) is listed as 31%. For the same compound, the IC50 in data set [2] was 3.6 µM. Besides, the “LD0 (maximum dose which does not cause any mortality in 8 days)” value in data set [3] turned out to be 100 mg/kg.
As to `CC(C)(C)NCC(O)COc1ccccc1CCCc1cccc2[nH]ccc12` (stereo not shown) [Example 7, 1-(1,1-dimethylethylamino)-3-[2-[3-(1H-indol-4-yl)-propyl]-phenoxy]-2-propanol], in data set [1] (setting [6]), the “% extension” value is on record as 41%. Besides, the IC50 in data set [2] worked out at 0.64 µM. Also, the “LD0 (maximum dose which does not cause any mortality in 8 days)” value in data set [3] was more than 400 mg/kg.
The corresponding values for `CCCNCC(O)COc1ccccc1CCCc1cccc2[nH]ccc12` (stereo not shown) [Example 8, 1-[2-[3-(1H-indol-4-yl)-propyl]-phenoxy]-3-propylamino-2-propanol] are 25.5%, 1.4 µM and more than 400 mg/kg.
Regarding `CCCNCC(O)COc1ccccc1CCCc1cccc2c1CC(=O)N2` (stereo not shown) [Example 9, 1,3-dihydro-4-[3-[2-[2-hydroxy-3-propylamino-propoxy]-phenyl]-propyl]-2H-indol-2-one], the “% extension” value in data set [1] (setting [4]) turned out to be 45%.
